Tests used:
[1] = system: α-synuclein-expressing yeast; assay: α-synuclein toxicity rescue in yeast (growth, OD600); type: cell-based; details: FIGS. 8A-8B
Method: Yeast Strains and culturing: Yeast strains expressing alpha-synuclein have been described in Cooper at. al, 2006. (Cooper A A, et al. Alpha-synuclein blocks ER-Golgi traffic and Rab1 rescues neuron loss in Parkinson's models. Science. 2006 Jul. 21; 313:324) Strains express multiple copies of alpha-synculein for galactose-inducible expression. […] Yeast were cultured in complete synthetic media (CSM) and an appropriate dropout (lacking histidine or uracil) to maintain plasmids if required. For galactose-induction experiments, overnight cultures were grown in CSM/2% glucose to saturation and diluted 1:20 into CSM/2% raffinose for ˜2 generations. Cultures were then diluted into CSM/2% galactose at an optimum OD600 for the experiment (see ‘Growth assays’).
(§1) Yeast Growth assays: Starting cultures for all dose-response assays were based on strains initially constructed in the lab to maintain homogeneity across experiments. All growth assays were carried out in 384 well format. Source plates were assembled in 96 well plates using multichannel pipettes to dilute rows in 1.6-fold serial dilutions of CSMGal. To these dilution series containing 2× final concentration of compound, 2×OD600 culture (in CSMGal) was dispensed with a multichannel pipette to achieve a final drug/culture mix with the desired OD600 and drug concentration. For WT yeast, the final starting OD600 was 0.01. For α-syn, the final starting OD600 was 0.02. Drug concentration ranges varied depending on efficacy, growth inhibition, and solubility in media. A Tecan EvoFreedom liquid handling robot was then used to transfer culture from 96 to 384 well format with each well being represented four times. Final well volume was 35 μL. Plates were then incubated in humidified containers at 30° C. for either 24 or 40 hours. Plates were then read with a Tecan Saphire plate reader at OD600.
Raw OD600 values were transformed to “Relative Growth” in WT cells or “% Maximum Rescue” in α-syn experiments. In WT cells, the well background was subtracted and all values were then normalized to 100% for the untreated condition. In α-syn rescue experiments, the well background was subtracted and the maximum rescue in the particular experiment was normalized to 100%.

[2] = system: WT control yeast strain; assay: Toxicity profile on WT control yeast strain (growth); type: cell-based; details: FIGS. 9A-9B
Method: as §1, with “A Tecan EvoFreedom liquid handling robot was then used to transfer culture from 96 to 384 well format with each well being represented four times. Final well volume was 35 μL. Plates were then incubated in humidified containers at 30° C. for either 24 or 40 hours.” left out
Raw OD600 values were transformed to “Relative Growth” in WT cells or “% Maximum Rescue” in α-syn experiments. […] All experimental data points were then calculated by (OD600Exp−OD600untreated/(OD600Max−OD600untreated)×100 to obtain rescue relative to maximum rescue observed. Dose-response curves were generated by nonlinear regression analysis using Prism Graphpad v. 6.0. In cases where the compounds began inhibiting growth, only points up to the maximum were used to fit the curve. Above that, points were directly connected and are always presented as dotted lines.

[3] = system: Sna3-GFP; assay: Immunoblot analysis of Sna3-GFP polyubiquitination in WT and α-syn cells; type: cell-based, yeast; details: FIG. 11B
Method: (§2) Protein analysis was performed in NoTox and HiTox strains with the compound treatment at indicated concentrations. Log phase CSM/2% raffinose cultures were induced with 2% galactose for 5 hours with DMSO or the compounds. Cultures were normalized to cell density and cell pellets prepared for SDS-PAGE. Cell pellets were boiled in SDS-loading dye for 15′, centrifuged, and resolved by 4-12% SDS-PAGE. CPY western blots were performed using culture conditions as described above. An anti-Cpy antibody (Invitrogen, A6428) was used at 1:5,000. Post-ER:ER ratios were quantitated using an IRDye800 secondary antibody (Li-Cor Odyssey, Rockland Immunochemicals) and scanned with the Li-Cor Odyssey imaging system. Significance was determined using a one-way ANOVA and Tukey's test of significance. From the same gel, total protein was detected by coomassie staining. Both blots and coomassie-stained gels were scanned using the Li-Cor Odyssey imaging system and quantitated. Significance was determined using a one-way ANOVA with Tukey's test of significance.
In WT Sna3-GFP cells, log phase CSMRaf cultures were shifted to galactose for 5 hours in the presence or absence of the compounds. Cell pellets were lysed in SDS-loading dye and Sna3-GFP cleavage monitored by Western blotting with an anti-GFP antibody. […]

[4] = system: Carboxypeptidase Y (CPY); assay: Western blot of Carboxypeptidase Y (CPY) trafficking; type: cell-based, yeast; details: FIG. 11D
Method: as §2

[5] = system: aSyn-expressing yeast cells; assay: Morphological analysis of aSyn-expressing yeast cells; type: cell-based; details: 10 uM, galactose induction five hours, FIG. 10
Method: Raffinose cultures of α-syn expressing yeast cells were grown up to the logarithmic phase in raffinose. Cultures were induced with galactose for five hours in the presence or absence of the indication concentration of the compounds. In the present example, the identified compounds were present at a concentration of 10 uM. Cells were centrifuged, media discarded, and then fixed with 4% paraformaldehyde in 1×PBS for 1 hr. The fixed culture was centrifuged, and the pellet resuspended in 0.4% paraformaldehyde in 1×PBS and kept at 4° C.

[6] = system: K63 linkages in iPS derived human neurons; assay: K63-Ub linkages in human iPS derived neuronal cultures (immunoblot); type: cell-based; details: 5 μM for 12 hours, FIG. 13A
Method: (§3) Human HEK-293 or neuronal cells treated with the appropriate compounds, were washed twice with ice cold PBS and then 0.5 ml of Lysis buffer was added and cells were scraped off the 10 cm dish (1 ml for 15 cm).
(§4) Lysis buffer is 50 mM Tris/HCl pH 7.5, 1 mM EGTA, 1 mM EDTA, 0.5 or 1% (v/v) NP-40, 1 mM sodium orthovanadate, 50 mM NaF, 5 mM sodium pyrophosphate, 0.27 M sucrose, 10 mM sodium 2-glycerophosphate, 0.2 mM phenylmethylsulphonyl fluoride, 1 mM benzamidine, plus 100 mM iodoacetamide added fresh prior to lysis (weight powder, don't use a frozen stock solution) to inactivate deubiquitylase activities and add also pepstatin/aprotinin to inhibit proteases. Cell extracts were sonicated twice for 15 seconds each time and clarified by centrifugation at 14000 g for 15 min at 4° C. Supernatants were collected and filtered using a 0.45 uM MiniSart/Syringe. Next, protein concentrations were determined by Bradford procedure.
The avidity based K63 linkage sensor protein was based on Sims et. al, 2012. Briefly, avidity based K63 sensor Halo-fusion protein was expressed in an E. coli expression vector and covalently bound to Halo-tag beads [Magne® HaloTag® Beads, 20% Slurry; Cat #G7281]. […] After incubation, the beads were washed three times with 1 ml of Lysis buffer containing 500 mM NaCl and once with 0.5 ml of 10 mM Tris/HCl pH 8.0. […] The eluate is heated at 75° C. for 5 min and analysed by immuno-blotting using an anti-K63 linkage specific antibody (http://www.abcam.com/ubiquitin-linkage-specific-k63-epr8590-448-antibody-ab179434.html).
Pure neuronal cultures derived from human iPS cells were treated with DMSO, DES-2877, DES-4114 and #32 at 5 μM for 12 hours. […] Ubiquitylation site identification by mass spectrometry was performed as described Kim et al., (Systematic and quantitative assessment of the ubiquitin-modified proteome. Mol Cell. 2011; 44:325-340). and Sarraf et al., (Landscape of the PARKIN-dependent ubiquitylome in response to mitochondrial depolarization. Nature. 2013; 496:372-376).

[7] = system: K63 linkages in human HEK-293 cells; assay: Ubiquitin chain linkages in HEK-293 cells; type: cell-based; details: 5 μM for 12 hours, FIG. 13B
Method: as §3, §4
The avidity based K63 linkage sensor protein was based on Sims et. al, 2012. Briefly, avidity based K63 sensor Halo-fusion protein was expressed in an E. coli expression vector and covalently bound to Halo-tag beads [Magne® HaloTag® Beads, 20% Slurry; Cat #G7281]. […] The eluate is heated at 75° C. for 5 min and analysed by immuno-blotting using an anti-K63 linkage specific antibody (http://www.abcam.com/ubiquitin-linkage-specific-k63-epr8590-448-antibody-ab179434.html). […]

Compound: COc1cc(Cl)cc(/C=N/Nc2nc(Nc3ccc(C)cc3Br)nc(N3CCOCC3)n2)c1O [DES-4114]
- rescue of aSyn toxicity in yeast (in words) [1]: most effective
- toxicity on WT control yeast strain (in words) [2]: least toxic among active analogs
- polyubiquitinated Sna3-GFP [3]: increase
- accumulation of CPY trafficking intermediates en route to the vacuole [4]: increase
- morphology: vesicular intermediates in yeast cells [5]: accumulation of vesicular intermediates
- K63 linkages in iPS derived human neurons [6]: modest increase
- K63 linkages in human HEK-293 cells [7]: modest increase

Source: patent US20200375996A1, “METHOD OF TREATING NEURODEGENERATIVE DISORDERS BY RESCUING ALPHA-SYNUCLEIN TOXICITY” (D.E. Shaw Research, LLC, priority 2015, published 2020)
